Source: US11873298B2, “Compounds and uses thereof” (JANSSEN PHARMACEUTICA NV, priority 2017, dated 2024)
pIC50: −log10 of the molar value.

Tests used:
[1] = molecular target: T1, SCD5 (Homo sapiens, UniProt Q86SK9); experiment: Growth inhibition of humanized yeast strain expressing SCD5 as sole desaturase; type: cell-based
T1 construct: host or cells: S. cerevisiae ole1Δ strain (W303 pdr1Δ pdr3Δ background), plasmid pRS316 with TDH3 promoter and CYC1 terminator
T1 sequence (Q86SK9 1-330): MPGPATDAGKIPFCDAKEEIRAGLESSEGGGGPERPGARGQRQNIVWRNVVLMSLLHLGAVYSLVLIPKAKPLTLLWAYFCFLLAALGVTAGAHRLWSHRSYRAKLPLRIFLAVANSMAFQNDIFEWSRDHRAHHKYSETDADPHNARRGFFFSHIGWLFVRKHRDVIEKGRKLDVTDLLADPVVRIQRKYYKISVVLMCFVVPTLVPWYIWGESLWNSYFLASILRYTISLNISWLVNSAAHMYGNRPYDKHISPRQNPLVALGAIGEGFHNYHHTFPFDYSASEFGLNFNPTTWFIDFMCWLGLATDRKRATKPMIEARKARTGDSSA
Outline: (§1)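 ole1Δ yeast (W303 pdr1Δ pdr3Δ background) carrying plasmid-borne Ole1, SCD1 or SCD5, grown in uracil-free media; cultures pre-grown in raffinose, seeded at 2× density 0.02 in galactose media with compound. Growth read as OD600 after 24 h at 30° C. for Ole1, 40 h for SCD1/SCD5.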

[2] = molecular target: T2, SCD1 (Homo sapiens, UniProt O00767); experiment: Growth inhibition of humanized yeast strain expressing SCD1 as sole desaturase; type: cell-based
T2 construct: host or cells: S. cerevisiae ole1Δ strain (W303 pdr1Δ pdr3Δ background), plasmid pRS316 with TDH3 promoter and CYC1 terminator
T2 sequence (O00767 1-359): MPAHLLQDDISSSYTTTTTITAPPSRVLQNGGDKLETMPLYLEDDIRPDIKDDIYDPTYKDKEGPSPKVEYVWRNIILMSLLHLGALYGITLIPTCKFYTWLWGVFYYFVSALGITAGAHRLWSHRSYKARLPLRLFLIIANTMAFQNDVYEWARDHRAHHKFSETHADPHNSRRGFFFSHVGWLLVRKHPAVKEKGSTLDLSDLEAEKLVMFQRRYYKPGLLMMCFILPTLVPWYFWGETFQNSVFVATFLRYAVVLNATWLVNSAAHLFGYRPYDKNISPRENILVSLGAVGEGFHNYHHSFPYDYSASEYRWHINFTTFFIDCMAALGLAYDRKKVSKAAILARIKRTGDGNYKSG
Outline: as §1

[3] = growth inhibition of humanized yeast strain expressing human SCD5
[4] = growth inhibition of humanized yeast strain expressing human SCD1
[5] = humanized yeast strain expressing SCD5
[6] = humanized yeast strain expressing SCD1

Compound | pIC50 ([1]; humanized yeast strain, 40 h) | pIC50 ([2]; humanized yeast strain, 40 h) | other results
Cc1nn(C)c2cc(-c3noc(C4CCN(C(=O)[C@@H]5CC(=O)N(c6cccc(C#N)c6)C5)CC4(F)F)n3)ccc12 (stereo partly drawn) [Compound 648] |  |  | pIC50 [1, 3]: < 4.35; pIC50 [2, 4]: < 4.35
Cc1nn(C)c2cc(-c3noc(C4CCN(C(=O)CCC(F)(F)F)CC4)n3)ccc12 [Compound 677] |  |  | pIC50 [1, 3]: < 4.35; pIC50 [2, 4]: < 4.35
CC(N1CCC(c2nc(-c3ccc4cnn(C5COC5)c4c3)no2)CC1)C(F)(F)F (stereo not drawn) [Compound 1091] | 5.44 | < 4.35 | 
CC(C)n1ncc2ccc(-c3noc(C4CCN(C(=O)CNC(=O)c5ccc(F)cc5)CC4(F)F)n3)cc21 (stereo not drawn) [Compound 681] |  |  | pIC50 [1, 3]: < 4.35; pIC50 [2, 4]: < 4.35
O=C(C1CC1)N1CCC(c2noc(-c3ccc4oc(=O)n(C5COC5)c4c3)n2)CC1 [Compound 1135] | 6.73 | < 4.35 | 
CC(C)(C)OC(=O)N1CC2(C1)CN(c1noc(-c3ccc4cnn(C5COC5)c4c3)n1)C2 [Compound 1074] | 5.71 | 5.27 | 
O=C1CC(n2ncc3ccc(-c4nc(N5CCn6c(Cl)cnc6C5)no4)cc32)C1 [Compound 953] | 8.00 | < 4.35 | 
CC(C)(C)OC(=O)N1CCC(c2noc(-c3ccc4cnn(C5COC5)c4c3F)n2)CC1 [Compound 988] | 7.62 | < 4.35 | 
CC1(OC(=O)N2CCC(c3noc(-c4ccnc(C5CCOC5)c4)n3)CC2)CC1 (stereo not drawn) [Compound 1016] | 7.21 | < 4.35 | 
CC(C)(C)OC(=O)N1CCC(c2nnc(-c3ccc4cnn(C5COC5)c4c3)o2)CC1 [Compound 851] | 7.19 | < 4.35 | 
O=C(C1CCC1)N1CCC(c2noc(-c3ccnc(C4CCOC4)c3)n2)CC1 (stereo not drawn) [Compound 1180] | 7.22 | < 4.35 | 
CC(C)C(=O)N1CCC(c2nc(-c3ccc(N4CCOCC4)cc3)no2)CC1 [Compound 1165] | < 4.35 | < 4.35 | 
CC1(OC(=O)N2CCC(c3noc(-c4ccnc(Cl)c4)n3)CC2)CC1 [Compound 1130] | 5.00 | < 4.35 | 
CC(C)(C)OC(=O)N1CCC(c2nc(-c3ccc4cn(C5CCC5)nc4c3)no2)CC1 [Compound 731] |  |  | pIC50 [1, 3]: < 4.35; pIC50 [2, 4]: < 4.35
COC(=O)N1CCC(c2noc(-c3ccc4oc(=O)n(C5COC5)c4c3)n2)CC1 [Compound 1031] | 5.95 | < 4.35 | 
CC(C)(C)OC(=O)N1CCC(c2cc(-c3cc4c(cn3)cnn4C3COC3)on2)CC1 [Compound 1107] | 8.00 | < 4.35 | 
CC(C)n1ncc2ccc(-c3noc(N4CCC(CO)CC4)n3)cc21 [Compound 637] |  |  | pIC50 [1, 3]: < 4.35; pIC50 [2, 4]: < 4.35
CC(C)OC(=O)N1CCC(c2nc(-c3ccc4cnn(C(C)C)c4c3)no2)CC1 [Compound 357] |  |  | pIC50 [1, 5]: < 4.35; SCD5 % Max Inhibition [1, 5]: 2.31%; SCD1 % Max Inhibition [2, 6]: 64.32%
COCCOC(=O)N1CCC(c2noc(-c3ccc4cnn(C5COC5)c4c3)n2)CC1 [Compound 929] | 5.35 | < 4.35 | 
COC(=O)N1CCC(c2noc(-c3ccc4ccn(C(C)C)c4c3)n2)CC1 [Compound 1037] | 6.34 | 4.99 | 
CC(C)c1nccn2cc(-c3nc(C4CCN(C(=O)OC(C)(C)C)CC4)no3)cc12 [Compound 901] | < 4.35 | < 4.35 | 
CC(C)(C)OC(=O)N1CCC(c2nc(-c3ccc4cnc(C5COC5)n4c3)no2)CC1 [Compound 811] | 6.17 | < 4.35 | 
CC(C)c1noc2ccc(-c3noc(C4CCN(C(=O)C5CC5)CC4)n3)cc12 [Compound 941] | 4.69 | < 4.35 | 
CC(=O)N1CC(n2ncc3ccc(-c4nc(N5CCn6c(Cl)cnc6C5)no4)cc32)C1 [Compound 935] | < 4.35 | < 4.35 | 
CC(C)n1cc2c(n1)CN(c1noc(C3CCN(C(=O)OC(C)(C)C)CC3)n1)CC2 [Compound 826] | 5.70 | < 4.35 | 
CC(CF)n1ncc2ccc(-c3noc(C4CCN(C(=O)CC5(C)CC5)CC4)n3)cc21 (stereo not drawn) [Compound 585] |  |  | pIC50 [1, 5]: 5.74; pIC50 [2, 6]: < 4.35
CC(C)n1ncc2ccc(-c3nc(N4CCN(C(=O)CC5CC5)CC4)no3)cc21 [Compound 874] | 7.30 | < 4.35 | 
CC(C)(C)OC(=O)N1CCC(c2nc(-c3ccc4cnn([C@H]5C[C@@H](O)C5)c4c3)no2)CC1 [Compound 822] | 6.95 | < 4.35 | 
